Series [1] deals with cardiovascular activities / arrhythmia. To be noted: cited from earlier work; for cardiovascular activities: Fukuda H. et al.
The subject of series [2] is anaesthetized rats. The series is described as follows: animal or person. Particulars: Rattus norvegicus.
Series [3] relates to anaesthetized rats. Particulars: for Arrhythmic scores / Antiarrhythmic effect: X ± SD; for Incidence of VF: n=10; for Death / animals with VF / animals without VF: of n=10.
For a further series, the system named is dogs. The series is described as follows: Ouabain-induced arrhythmia in dogs. Particulars: for Incidence of arrhythmia: I13 iv 3 mg/kg, lidocaine iv 12 mg/kg. Format: in vivo, dog.
Another series concerns rabbits. The series is described as follows: Electrically-induced ventricular fibrillation threshold (VFT) in rabbits. Format: in vivo, rabbit.
Series [4] concerns Langendorff's perfused rat hearts. The series is described as follows: Lasting antiarrhythmic action after po administration, hearts removed and mounted on Langendorff's apparatus. It counts as in vivo. Particulars: 10 mg/kg po at 1 hr before experiment (FIG. 4). As to the method: 1, 3 and 6 hours after the administration of 100 mg/kg of I13 by p.o. to rats, the hearts were removed and mounted onto Langendorff's apparatus. […] (see FIG. 4)
FIG. 4. Influence of po I13 and mexiletine on the time course of reperfusion-induced arrhythmias in Langendorff's perfused rat hearts

Read-outs that look alike come from different tables or passages of the source.

Method for dogs: (iv, 12 mg/kg) on ouabain induced arrhythmia in dogs
(Ouabain administration for 30 min)

As for `O=C(NCC1CCCCN1)c1cc(OCC(F)(F)F)ccc1OCC(F)(F)F` (stereo not shown) [Flecainide], the side effects result in series [1] was “marked side effects of pulmonary fibrosis and thyroid function change”. Also, the effect upon arrhythmia entry in series [1] (clinical use) is “good effect upon arrhythmia”.
With `CCN(CC)CC(=O)Nc1c(C)cccc1C` [Lidocaine, reference compound], it took a dose of 2.23 mg/kg to reach the 50% effect level in the series with anaesthetized rats [2] (iv) (ED50). For the same compound, in series [1] (clinical use), the oral administration result was “can not be administered orally”. Also, in series [1] (clinical use), the “prevention of ventricular fibrillation” value was “can not effectively prevent ventricular fibrillation”. The suppression of arrhythmia result in series [1] (clinical use) is on record as “can effectively suppress arrhythmia”. Moreover, the Arrhythmic scores with anaesthetized rats [3] (iv 1.0 mg/kg) came out at 5.3 ± 0.8; in the series with anaesthetized rats [3] (iv 3.0 mg/kg) it was 1.7 ± 1.8. The Antiarrhythmic effect in the series on anaesthetized rats [3] (iv 1.0 mg/kg, coronary occlusion 5 min) was determined as 1.0 ± 1.4; in the series on anaesthetized rats [3] (iv 1.0 mg/kg, coronary occlusion 10 min) it was 0.38 ± 0.23; with anaesthetized rats [3] (iv 1.0 mg/kg, reperfusion 0.17 min), 3.6 ± 1.3; with anaesthetized rats [3] (iv 1.0 mg/kg, reperfusion 0.33 min), 4.4 ± 1.5; in the series on anaesthetized rats [3] (iv 1.0 mg/kg, reperfusion 0.5 min), 5.3 ± 0.9; with anaesthetized rats [3] (iv 1.0 mg/kg, reperfusion 1 min), 2.1 ± 1.7. The Antiarrhythmic effect is 1.3 ± 1.0 with anaesthetized rats [3] (iv 1.0 mg/kg, reperfusion 2 min); 0.6 ± 1.0 in the series on anaesthetized rats [3] (iv 1.0 mg/kg, reperfusion 3 min); 0.2 ± 0.4 in the series on anaesthetized rats [3] (iv 1.0 mg/kg, reperfusion 5 min); 0.2 ± 0.4 with anaesthetized rats [3] (iv 1.0 mg/kg, reperfusion 6 min); 0.2 ± 0.4 in the series with anaesthetized rats [3] (iv 1.0 mg/kg, reperfusion 7 min); 0.2 ± 0.4 with anaesthetized rats [3] (iv 1.0 mg/kg, reperfusion 10 min). The Antiarrhythmic effect in the series with anaesthetized rats [3] (iv 1.0 mg/kg, reperfusion 15 min) is recorded as 0.06 ± 0.2; in the series with anaesthetized rats [3] (iv 1.0 mg/kg, reperfusion 25 min) it was 0; in the series with anaesthetized rats [3] (iv 3.0 mg/kg, coronary occlusion 5 min), 0.2 ± 0.3; with anaesthetized rats [3] (iv 3.0 mg/kg, coronary occlusion 10 min), 0.5 ± 0.6; in the series with anaesthetized rats [3] (iv 3.0 mg/kg, reperfusion 0.17 min), 1.2 ± 1.4; in the series on anaesthetized rats [3] (iv 3.0 mg/kg, reperfusion 0.33 min), 1.7 ± 1.8. Further, the Antiarrhythmic effect is 1.1 ± 1.4 with anaesthetized rats [3] (iv 3.0 mg/kg, reperfusion 0.5 min); 0.8 ± 1.3 in the series on anaesthetized rats [3] (iv 3.0 mg/kg, reperfusion 1 min); 0.4 ± 1.0 with anaesthetized rats [3] (iv 3.0 mg/kg, reperfusion 2 min); 0.3 ± 0.5 with anaesthetized rats [3] (iv 3.0 mg/kg, reperfusion 3 min); 0.4 ± 0.7 in the series on anaesthetized rats [3] (iv 3.0 mg/kg, reperfusion 5 min); 0.3 ± 0.7 in the series on anaesthetized rats [3] (iv 3.0 mg/kg, reperfusion 6 min). Moreover, the Antiarrhythmic effect was 0.2 ± 0.4 in the series with anaesthetized rats [3] (iv 3.0 mg/kg, reperfusion 7 min); 0.2 ± 0.3 in the series on anaesthetized rats [3] (iv 3.0 mg/kg, reperfusion 10 min); 0.1 ± 0.3 in the series on anaesthetized rats [3] (iv 3.0 mg/kg, reperfusion 15 min); 0.1 ± 0.3 in the series on anaesthetized rats [3] (iv 3.0 mg/kg, reperfusion 25 min); 0.5 ± 0.5 with anaesthetized rats [3] (po 10 mg/kg, coronary occlusion 5 min); 0.40 ± 0.22 in the series with anaesthetized rats [3] (po 10 mg/kg, coronary occlusion 10 min). The Antiarrhythmic effect in the series with anaesthetized rats [3] (po 10 mg/kg, reperfusion 0.17 min) came to 2.6 ± 1.6; with anaesthetized rats [3] (po 10 mg/kg, reperfusion 0.33 min), 2.6 ± 1.8; in the series with anaesthetized rats [3] (po 10 mg/kg, reperfusion 0.5 min), 2.5 ± 2.3; in the series on anaesthetized rats [3] (po 10 mg/kg, reperfusion 1 min), 2.2 ± 1.9; with anaesthetized rats [3] (po 10 mg/kg, reperfusion 1.5 min), 2.4 ± 2.2; with anaesthetized rats [3] (po 10 mg/kg, reperfusion 3 min), 1.5 ± 2.5. Also, the Antiarrhythmic effect worked out at 1.1 ± 1.9 in the series with anaesthetized rats [3] (po 10 mg/kg, reperfusion 4 min); 1.0 ± 1.9 in the series on anaesthetized rats [3] (po 10 mg/kg, reperfusion 5 min); 0.8 ± 1.6 with anaesthetized rats [3] (po 10 mg/kg, reperfusion 6 min); 1.3 ± 2.5 in the series with anaesthetized rats [3] (po 10 mg/kg, reperfusion 7 min); 1.4 ± 2.9 in the series on anaesthetized rats [3] (po 10 mg/kg, reperfusion 15 min); 1.4 ± 2.9 in the series on anaesthetized rats [3] (po 10 mg/kg, reperfusion 25 min). Moreover, the Antiarrhythmic effect came to 0.9 ± 0.7 in the series on anaesthetized rats [3] (po 30 mg/kg, coronary occlusion 5 min); 1.0 ± 0.9 with anaesthetized rats [3] (po 30 mg/kg, coronary occlusion 10 min); 1.7 ± 1.5 in the series with anaesthetized rats [3] (po 30 mg/kg, reperfusion 0.17 min); 1.8 ± 1.6 with anaesthetized rats [3] (po 30 mg/kg, reperfusion 0.33 min); 1.0 ± 1.0 in the series with anaesthetized rats [3] (po 30 mg/kg, reperfusion 0.5 min); 0.6 ± 0.9 in the series on anaesthetized rats [3] (po 30 mg/kg, reperfusion 1 min). For the same compound, the Antiarrhythmic effect with anaesthetized rats [3] (po 30 mg/kg, reperfusion 1.5 min) was 0.5 ± 0.6; with anaesthetized rats [3] (po 30 mg/kg, reperfusion 3 min), 0.2 ± 0.2; with anaesthetized rats [3] (po 30 mg/kg, reperfusion 4 min), 0.2 ± 0.2; in the series with anaesthetized rats [3] (po 30 mg/kg, reperfusion 5 min) it was 0.2 ± 0.2; in the series on anaesthetized rats [3] (po 30 mg/kg, reperfusion 6 min), 0.2 ± 0.3; in the series with anaesthetized rats [3] (po 30 mg/kg, reperfusion 7 min), 0.2 ± 0.3. Besides, the Antiarrhythmic effect came to 0.3 ± 0.3 in the series on anaesthetized rats [3] (po 30 mg/kg, reperfusion 15 min) and 0.2 ± 0.3 in the series on anaesthetized rats [3] (po 30 mg/kg, reperfusion 25 min). The “Incidence of VF” value in the series on anaesthetized rats [3] (iv 1.0 mg/kg) turned out to be 50%; with anaesthetized rats [3] (iv 3.0 mg/kg), 0%. The Death in the series on anaesthetized rats [3] (iv 1.0 mg/kg) and in the series on anaesthetized rats [3] (iv 3.0 mg/kg) was 0 each time. In addition, the “animals with VF” value in the series with anaesthetized rats [3] (iv 1.0 mg/kg) is on record as 3; in the series on anaesthetized rats [3] (iv 3.0 mg/kg) it was 0. Moreover, the “animals without VF” value worked out at 7 with anaesthetized rats [3] (iv 1.0 mg/kg) and 10 in the series on anaesthetized rats [3] (iv 3.0 mg/kg). In addition, the Incidence of arrhythmia in the series on dogs (0 min (before administration)) amounted to 97 ± 8%; in the series with dogs (5 min), 83 ± 41%; in the series on dogs (10 min) it was 74 ± 42%; with dogs (15 min) it was 55 ± 46%; with dogs (20 min), 42 ± 45%; in the series with dogs (25 min), 16 ± 24%. Further, the Incidence of arrhythmia in the series with dogs (30 min) worked out at 10 ± 17%; in the series on dogs (35 min), 8 ± 10%; in the series with dogs (40 min), 28 ± 25%; with dogs (45 min), 10 ± 14%; in the series with dogs (50 min) it was 8 ± 15%; in the series on dogs (60 min) it was 10 ± 21%. Besides, the reoccurrence of arrhythmia result with dogs (within 4 hour period) is “reoccurrences of VPBs, VT and VF have been detected”. In the series on rabbits (baseline, iv 15 mg/kg group), the “VFT Before” value came to 5.6 ± 0.9 volt. Moreover, the “VFT After” value in the series on rabbits (iv 15 mg/kg) amounted to 8.8 ± 1.6 volt. This compound displayed a ΔVFT in the series with rabbits (iv 15 mg/kg) of 3.3 ± 0.9 volt.
Take `COc1ccc2cc3[n+](cc2c1OC)CCc1cc2c(cc1-3)OCO2` [berberine]: in series [1], the cardiovascular activities entry is “highly potent cardiovascular activities”.
On to `COc1ccc2cc3[n+](cc2c1O)CCc1cc2c(cc1-3)OCO2` [berberubine], for which, in series [1], the cardiovascular activities entry is given as “highly potent cardiovascular activities”.
Consider `Cc1cccc(C)c1OCC(C)N` (stereo not shown) [mexiletine, reference compound], for which, in series [4], the ke is reported as 0.075.
`COc1cc2c(cc1OC)-c1cc3ccc(OC)c(OC)c3c[n+]1CC2` [palmatine]: the cardiovascular activities entry in series [1] was “highly potent cardiovascular activities”.
In the case of `CCCNCC(O)COc1ccccc1C(=O)CCc1ccccc1` (stereo not shown) [propafenon, reference compound], the 50% effect level with anaesthetized rats [2] (po) (ED50) was put at a dose of 19.3 mg/kg. For the same compound, in the series on anaesthetized rats [3] (po 10 mg/kg), the Arrhythmic scores was 2.6 ± 1.6, the “Incidence of VF” value came out at 20%, the Death is on record as 2 and the “animals with VF” value came out at 1. The “animals without VF” value in the series on anaesthetized rats [3] (po 10 mg/kg) came out at 7. For the same compound, in the series with anaesthetized rats [3] (po 30 mg/kg), the Arrhythmic scores is on record as 1.8 ± 1.6, the “Incidence of VF” value amounted to 0%, the Death came to 0 and the “animals with VF” value was determined as 0. Besides, the “animals without VF” value in the series on anaesthetized rats [3] (po 30 mg/kg) was found to be 10.

(Values after patent US5470852A, “Tetrahydroprotoberberine quaternary ammonium compounds useful in for treating arrhythmia” (priority 1991, dated 1995).)
